Assays:
Leukotriene B4 receptor [1] = target: T1, Leukotriene B4 receptor (Homo sapiens, UniProt Q9NPC1+Q15722); assay: Inhibition of LTB4 -induced bronchoconstriction in guinea pigs following 0.1 mg/kg prior to challenge.; assay type: functional, organism-based; design: dose 0.1 mg/kg; scale not given: the % may be the effect or the level left; conditions: Cavia porcellus; target entry is the homologue from another species; at 0.1 mg/kg
Leukotriene B4 receptor [2] = target: T1, Leukotriene B4 receptor; assay: Inhibition of leukotriene B4 (LTB4) binding to its receptor on intact human neutrophils
Cavia porcellus = assay: Percent of control LTB4 -induced bronchoconstriction in guinea pigs before 20 hours pretreatment at 1.0 mg/kg; assay type: functional

T1 sequence (Q15722 whole entry, looked up): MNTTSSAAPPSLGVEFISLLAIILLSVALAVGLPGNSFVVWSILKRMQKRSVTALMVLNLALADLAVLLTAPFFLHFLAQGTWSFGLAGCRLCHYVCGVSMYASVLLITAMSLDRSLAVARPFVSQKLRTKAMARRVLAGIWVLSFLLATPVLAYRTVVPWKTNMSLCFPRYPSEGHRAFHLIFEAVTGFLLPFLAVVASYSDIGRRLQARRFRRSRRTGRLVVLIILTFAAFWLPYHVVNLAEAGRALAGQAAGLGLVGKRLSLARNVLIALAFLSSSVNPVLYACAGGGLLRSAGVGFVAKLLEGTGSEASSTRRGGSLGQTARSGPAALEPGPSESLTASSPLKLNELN
T1 sequence (Q9NPC1 whole entry, looked up): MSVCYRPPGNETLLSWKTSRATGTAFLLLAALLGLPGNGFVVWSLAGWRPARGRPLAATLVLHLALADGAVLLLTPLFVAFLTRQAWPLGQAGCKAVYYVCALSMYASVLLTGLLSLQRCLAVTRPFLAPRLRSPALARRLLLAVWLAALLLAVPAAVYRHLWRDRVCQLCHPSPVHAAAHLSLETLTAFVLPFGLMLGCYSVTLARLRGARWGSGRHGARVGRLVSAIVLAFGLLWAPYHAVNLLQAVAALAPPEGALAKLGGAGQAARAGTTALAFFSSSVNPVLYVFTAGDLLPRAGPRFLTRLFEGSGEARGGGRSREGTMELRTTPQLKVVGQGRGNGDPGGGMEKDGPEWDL

SMILES | Control (Leukotriene B4 receptor [1]) | Ki (Leukotriene B4 receptor [2]) | Control (Cavia porcellus)
COc1ccc(/C=C/CCCCOc2ccc(C(=O)c3cccc(C(=O)O)c3)cc2CCC(=O)O)cc1 | 88% | 11 nM | 
COc1cc(C(=O)N(C(C)C)C(C)C)ccc1OCCCCCOc1ccc(C(=N)N)cc1.O=C(O)/C=C\C(=O)O [MOXILUBANT MALEATE] | 80% | 1 nM | 
COc1ccc(/C=C/CCCCOc2cccc(OCCCCC(=O)O)c2CCC(=O)O)cc1 | 101% |  | 
CCCc1c(OCCCOc2ccc(-c3cscn3)c(OC)c2CC2CC2)ccc2c1OC(C(=O)O)CC2 (configuration not stated) |  |  | 36%
CCCc1c(OCCCCCCc2cccc(OCCCCCCC(=O)O)c2CCC(=O)O)ccc2c1OCCC2=O |  |  | 73%
CCCc1c(OCCCOc2ccc(C(C)=O)c(OC)c2CCC)ccc2c1OC(C(=O)O)CC2 (racemic) | 91% |  | 
CCCc1c(OCCCCCCc2cccc(OCCCCC(=O)O)c2CCC(=O)O)ccc2c1OCCC2=O |  |  | 26%
CCCc1c(OCCCCCCc2cccc(OCCCCCCCCC(=O)O)c2CCC(=O)O)ccc2c1OCCC2=O |  |  | 24%
CCCc1c(OCCCCCCc2cccc(OCCCCCCCC(=O)O)c2CCC(=O)O)ccc2c1OCCC2=O |  |  | 27%
CCCc1c(OCCCCCCc2cccc(OCCCC(=O)O)c2CCC(=O)O)ccc2c1CCCC2=O |  |  | 19%
CCCc1c(OCCCCCCc2cccc(OCCCC(=O)O)c2CCC(=O)O)ccc2c1OCCC2=O |  |  | 20%
CC(C)(CCCCOc1cc(-c2ccccc2)cc(-c2ccccc2)n1)c1nnn[nH]1 |  |  | 15%
CCCc1c(OCCCCCOc2cc3c(cc2C(C)=O)CCC(C(=O)O)O3)ccc(C(C)=O)c1O (racemic) [ABLUKAST] |  | 320 nM | 
CCCc1c(OCCCCCCc2ccc(OCCCC(=O)O)cc2CCC(=O)O)ccc2c1OCCC2=O |  |  | 45%
CCCc1c(OCCCCCCc2cccc(OCCCCCC(=O)O)c2CCC(=O)O)ccc2c1CCCC2=O |  |  | 25%

From ChEMBL document CHEMBL1151094, “Benzenepropanoic acids containing chromanone or naphthalenone moieties are potent and orally active leukotriene B4 antagonists” (Bioorg Med Chem Lett, 1994)
